Patent publication US11008603B2, “Method and kit for detecting pathogenic microorganism” (JAPAN SCIENCE AND TECHNOLOGY AGENCY, priority 2016, dated 2021)

What was measured:
[1] = Test Example 1: influence of pH value of hydrophilic solvent on fluorescence detection of 4-MU in droplets covered with FC40; assay type: physicochemical; details: 50 μM 4-MU, 33 mM DEA-HCl, 4 mM CaCl2; buffer pH set higher than pKa (pH 8 or more) within pH 6.5 to 9.0; FC40 cover
Text: According to the following procedure, the influence of the pH value of a hydrophilic solvent on detection sensitivity was studied.
First, according to a report by Kim et al. (“Quantifying genetically inserted fluorescent protein in single iPS cells to monitor Nanog expression using electroactive microchamber arrays”, Lab on Chip, 2014, Issue 4, Vol. 14, and p. 730-736), a droplet array device (DAD) was produced. A cover glass (24 mm×32 mm) was washed and dried. The cover glass was then spin-coated with an amorphous fluorine resin (CYTOP 816AP, AGC Inc.), and fired at 180° C. for 1 hour. The cover glass coated with the amorphous fluorine resin was spin-coated with a positive type photoresist (AZ-4903, AZ Electronic Materials), fired at 55° C. for 3 minutes, and then further fired at 110° C. for 5 minutes. The cover glass was subjected to photolithography by use of a photomask having holes each having a diameter of 3 μm at intervals of 5 μm. The cover glass was dry-etched with oxygen plasma, and then washed to obtain as the DAD. […]
With a CMOS camera (Neo sCMOS, Andor) connected to a fluorescence microscope (IX8, OLYMPUS), a fluorescent image of each of the droplets was photographed to measure fluorescence intensity. […] The fluorescent image was analyzed with an imaging analysis software (Meta-Morph, Molecular Devices), to calculate fluorescence intensity.

[2] = Test Example 2: influence of buffering substance (DEA) concentration on fluorescence intensity of 4-MU in droplets covered with FC40 over time; assay type: physicochemical; details: 4 mM CaCl2, pH 6.5, 50 μM 4-MU
Experimental: According to the following procedure, the influence of the concentration of a buffering substance of a hydrophilic solvent on detection sensitivity was studied. 4-MU was dissolved in a concentration of 50 μM in a buffer solution (4 mM CaCl2, pH 6.5) having a DEA concentration adjusted to 25 mM to 1M. Into the array, 30 μL of the buffer solution in which 4-MU was dissolved was introduced, to fill each of the wells with the buffer solution (see FIG. 1A). Then, into the array, 200 μL of a hydrophobic solvent (FC40) was introduced, to form a droplet of the hydrophilic solvent covered with the hydrophobic solvent in each of the wells. Time-lapse photographing was performed under a fluorescence microscope to measure fluorescence intensity of each of the droplets.

[3] = cited from earlier work

Row | Compound | fluorescence detection sensitivity in droplet (distribution/leakage to FC40) [1] | fluorescence intensity over time ([2]; DEA 25 mM) | fluorescence intensity over time ([2]; DEA 50 mM, for 10 minutes) | decrease in the fluorescence intensity over time ([2]; DEA 100 mM, for 30 minutes) | decrease in the fluorescence intensity over time ([2]; DEA 500 mM, for 30 minutes) | decrease in the fluorescence intensity over time ([2]; DEA 1 M, after subtraction of fading due to exposure) | acid dissociation constant (pKa) [3]
1 | Cc1cc(=O)oc2cc(O)ccc12 [4MU, 4-methylumbelliferone] | detected with higher sensitivity | decrease in the fluorescence intensity was observed | maintained | significantly suppressed | significantly suppressed | not observed | 7.79
2 | O=c1ccc2nc3ccc(O)cc3oc-2c1 [resorufin] |  |  |  |  |  |  | 6.0
3 | CCN(CC)c1ccc2c(-c3ccccc3C(=O)O)c3ccc(=[N+](CC)CC)cc-3oc2c1.[Cl-] [rhodamine] |  |  |  |  |  |  | 6.0
4 | fluorescein |  |  |  |  |  |  | 6.4
